In US20210177803A1, “NEW PHARMACEUTICAL USE FOR THE TREATMENT OF HEART FAILURE” (Novartis AG, priority 2018, published 2021):
Like-named read-outs stand apart in the source and are kept apart here.

Legend:
[1] = tested on: patients with HFrEF following hemodynamic stabilization after an episode of ADHF; conditions: for Proportion of patients achieving the target dose of 200 mg LCZ696 b.i.d.: 10 weeks after randomization; for Odds ratio (OR) for up-titration success to 200 mg b.i.d.: multivariate logistic regression
Description: The study design comprises three Epochs (phases): the Screening Epoch; the Treatment Epoch defined as 10 weeks after Randomization; and 16-week Follow-up Epoch. Patients were stratified into three groups based on their pre-admission treatment status: (a) receiving an angiotensin-converting enzyme inhibitor (ACEI), (b) receiving an angiotensin receptor blocker (ARB), or (c) ACEI/ARB-naïve patients.
The study population consists of patients hospitalized for an episode of acute decompensation of heart failure who are diagnosed with CHF NYHA class II-to-IV and reduced ejection fraction (LVEF 40%). Patients can be either with first presentation (de novo), or acute decompensation of HF due to deterioration in patients with a prior history of (chronic) HF.
Inclusion Criteria: • 1. Patients hospitalized due to acute decompensated HF episode (ADHF) as primary diagnosis) and consistent Signs and Symptoms. • 2. Diagnosis of HF New York Heart Association class II-to-IV and reduced ejection fraction: Left ventricular ejection fraction 40% at Screening. • 3. […] Stabilized (while in the hospital) for at least 24 h leading to Randomization defined as: • No need for IV diuretics in the past 24 h prior to signing ICF • Systolic blood pressure (SBP) 110 mm Hg for at least 6 h prior to Randomization • 5. Meeting one of the following criteria: • Patients on any dose of ACEI or ARB at screening • ACEI/ARB naïve patients and patients not on ACEI or ARB for at least 4 weeks before screening.
The basis for up-titration toward the target dose was taking into consideration tolerability (i.e., incidence of hypotension, renal or hepatic impairment and hyperkalemia) based on clinical evaluation and laboratory assessment.

NT-proBNP = tested on: NT-proBNP
Protocol: (§1) The study rational and design is described in by Velazquez E J, et al. .in Am.
(§2) The starting dose and all subsequent doses were selected to optimize the highest tolerated dose based on a systolic blood pressure (SBP) algorithm.
(§3) Inclusion Criteria: • Patients ≥18 y of age with the capacity to provide written informed consent. • Currently hospitalized for a primary diagnosis of HF, including symptoms and signs of fluid overload. • Eligible patients will be randomized no earlier than 24 hours and up to ten days after presentation while still hospitalized as long as meet the following definition of stable status: • SBP≥100 mm Hg for the preceding 6 hours prior to randomization; no symptomatic hypotension • No increase (intensification) in i.v. diuretic dose within last 6 hours prior to randomization • No i.v. inotropic drugs for 24 hours prior to randomization • No i.v. vasodilators including nitrates within last 6 hours prior to randomization • Left ventricular EF 40% within the past 6 m (including current hospitalization) using echocardiography, multi gated acquisition scan (MUGA), CT scanning, MRI or ventricular angiography, provided no subsequent study documented an EF of >40% • Elevated NT-proBNP≥1600 pg/mL OR BNP≥400 pg/mL during current hospitalization.

[2] = tested on: patients hospitalized for acute HFrEF; assay: PIONEER-HF study: clinical outcomes; format: in vivo, human
Protocol: as §1, §2, §3

[3] = tested on: patients hospitalized for acute HFrEF
Protocol: as §2, §3

[4] = tested on: high-sensitivity cardiac troponin (hsTnT); conditions: compared with enalapril, 4 weeks
Protocol: (§4) Circulating high-sensitivity cardiac troponin (hsTn) and soluble ST2 (sST2) reflect myocardial stress in patients with heart failure (HF). Production of cyclic guanosine 3′5′ monophosphate (cGMP) in response to activation of natriuretic peptide receptors reduces cardiac afterload and preload.
(§5) Ratios of geometric means (timepoint/baseline) were determined and compared as a ratio for sacubitril/valsartan vs. enalapril.

urinary cGMP = conditions: compared with enalapril, 1 week
Protocol: as §4, §5

[5] = tested on: ambulatory HF patients with an ejection fraction ≤40%; conditions: compared with enalapril; cited from earlier work
neprilysin = neprilysin (Homo sapiens, UniProt P08473); conditions: 200 mg LCZ696 b.i.d.; cited from earlier work
[6] = 8 weeks, LCZ696 n = 440, enalapril n = 441
[7] = compared with enalapril, 8-week study period

Sequence of neprilysin (P08473 whole entry): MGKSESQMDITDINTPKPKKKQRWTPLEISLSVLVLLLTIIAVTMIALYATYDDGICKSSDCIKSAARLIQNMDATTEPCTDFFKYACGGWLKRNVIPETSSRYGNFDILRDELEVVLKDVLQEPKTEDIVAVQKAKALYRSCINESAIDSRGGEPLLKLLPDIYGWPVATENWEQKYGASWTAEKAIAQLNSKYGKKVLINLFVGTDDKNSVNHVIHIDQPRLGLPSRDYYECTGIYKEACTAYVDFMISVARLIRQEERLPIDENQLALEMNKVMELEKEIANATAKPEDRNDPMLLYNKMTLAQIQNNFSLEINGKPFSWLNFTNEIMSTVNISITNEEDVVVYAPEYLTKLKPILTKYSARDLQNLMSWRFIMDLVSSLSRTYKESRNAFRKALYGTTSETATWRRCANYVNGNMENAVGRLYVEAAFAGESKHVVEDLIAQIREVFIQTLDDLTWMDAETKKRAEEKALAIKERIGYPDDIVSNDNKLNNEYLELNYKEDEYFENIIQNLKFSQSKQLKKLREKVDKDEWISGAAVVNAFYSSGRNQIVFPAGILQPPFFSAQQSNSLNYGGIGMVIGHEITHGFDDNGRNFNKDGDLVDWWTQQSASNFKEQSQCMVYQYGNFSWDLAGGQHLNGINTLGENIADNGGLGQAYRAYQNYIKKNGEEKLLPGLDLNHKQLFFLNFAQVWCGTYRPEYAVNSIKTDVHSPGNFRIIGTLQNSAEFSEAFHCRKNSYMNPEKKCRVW

## CCCCC(=O)N(Cc1ccc(-c2ccccc2-c2nn[n-]n2)cc1)[C@H](C(=O)[O-])C(C)C.CCOC(=O)[C@H](C)C[C@@H](Cc1ccc(-c2ccccc2)cc1)NC(=O)CCC(=O)[O-].[Na+].[Na+].[Na+] [LCZ696, trisodium [3((1S,3R)-1-biphenyl-4-ylmethyl-3-ethoxycarbonyl-1-butylcarbamoyl) propionate-(S)-3′-methyl-2′-(pentanoyl{2″-(tetrazol-5-ylate)biphenyl-4′-ylmethyl}amino)butyrate]hemipentahydrate]
[1]; ACEI or ARB strata compared to naive
  Relative RR, primary endpoint (target dose 200 mg b.i.d.): 1.01
[1]; ACEI/ARB naïve patients
  Patients who achieved the target dose: 48.3%
[1]; ACEI/ARB naïve vs prior ACEI/ARB use
  RRR, achieved target dose: 1.008
[1]; both groups
  Patients who achieved and maintained any dose of LCZ696 for at least 2 weeks leading to week 10: More than 86%
[1]; both groups (ACEI/ARB naïve and not naïve)
  Subjects maintained on any dose at week 10: 88%
[1]; de novo HF patients
  Patients able to achieve and maintain any dose at week 10: 90%
  Patients who achieved the target dose: 56.0%
[1]; de novo HF vs prior HF diagnosis
  RRR, achieved target dose: 1.30
[1]; in-hospital or shortly after discharge
  Feasibility and tolerability of early initiation (in words): feasible and overall well tolerated
[1]; post-discharge arm
  Proportion of patients achieving the target dose of 200 mg LCZ696 b.i.d.: 50.4%
[1]; post-discharge initiation
  Patients who achieved and maintained any dose of LCZ696 for at least 2 weeks leading to week 10: 88.8%
  Patients who achieved and maintained either 100 mg b.i.d. or 200 mg b.i.d. for at least 2 weeks leading to week 10: 68%
[1]; pre- vs post-discharge
  RRR, achieved and maintained 100 mg or 200 mg b.i.d.: 0.919
  RRR, achieved and maintained any dose: 0.973
[1]; pre- vs post-discharge, 10 weeks
  Relative risk ratio (RRR), achieving target dose 200 mg b.i.d.: 0.893
[1]; pre-discharge arm
  Proportion of patients achieving the target dose of 200 mg LCZ696 b.i.d.: 45.0%
[1]; pre-discharge initiation
  Patients who achieved and maintained any dose of LCZ696 for at least 2 weeks leading to week 10: 86.4%
  Patients who achieved and maintained either 100 mg b.i.d. or 200 mg b.i.d. for at least 2 weeks leading to week 10: 62.5%
[1]; predictor: assignment to pre- or post-discharge initiation
  Odds ratio (OR) for up-titration success to 200 mg b.i.d.: 1.21
[1]; predictor: prior use of an ACEI or ARB
  Odds ratio (OR) for up-titration success to 200 mg b.i.d.: 1.04
[1]; subjects with a prior HF diagnosis
  Patients who achieved the target dose: 44.8%
[1]; subjects with prior ACEI/ARB use
  Patients who achieved the target dose: 47.9%
NT-proBNP; LCZ696 vs. Enalapril
  Ratio of time-averaged change in NT-proBNP from baseline to the geometric mean of weeks 4 and 8: 0.71
NT-proBNP; LCZ696 vs. enalapril, week 1
  Ratio of change in NT-proBNP from baseline: 0.76
[2]; [6]
  Additional HF drug: 75 (17.0) number (%)
  Composite (death, rehospitalization for HF, LVAD implantation, or listing for cardiac transplant): 41 (9.3) number (%)
  Death: 10 (2.3) number (%)
  Expanded composite (composite plus unplanned outpatient visits requiring IV diuretics, or increase >50% in diuretic dose): 262 (59.5) number (%)
  HF rehospitalization: 35 (8.0) number (%)
  Increase in diuretic dose >50%: 242 (55.0) number (%)
  LVAD implantation: 1 (0.2) number (%)
  Listing for cardiac transplant: 0 (0.0) number (%)
  Unplanned outpatient visits requiring intravenous diuretics: 2 (0.5) number (%)
[2]; LCZ696 vs. Enalapril
  Additional HF drug, HR (95% CI): 0.89 (0.65, 1.22)
  Death, HR (95% CI): 0.66 (0.30, 1.48)
  Expanded composite, HR (95% CI): 0.409
  HF rehospitalization, HR (95% CI): 0.56 (0.37, 0.84)
  Increase in diuretic dose >50%, HR (95% CI): 0.84 (0.84, 1.21)
  LVAD implantation, HR (95% CI): 0.99 (0.06, 15.97)
  Unplanned outpatient visits requiring intravenous diuretics, HR (95% CI): 1.00 (0.14, 7.07)
[2]; [7]
  Absolute risk reduction, clinical composite: 7.5%
  Relative risk reduction, clinical composite: 44.6%
[3]; 8 weeks
  Hyperkalemia: 11.6%
  Symptomatic hypotension: 10.0%
  Worsening renal function: 13.6%
[3]; LCZ696 vs. Enalapril
  Angioedema, HR: 0.17
  Hyperkalemia, HR: 1.25
  Symptomatic hypotension, HR: 1.10
  Worsening renal function, HR: 0.93
[3]
  Angioedema in patients who identified as black (in words): no angioedema
[3]; listed as sacubitril-valsartan
  Angioedema in patients who identified as black (in words): no cases
[3]; blinded adjudication
  Angioedema events (number in words): one
[3]; blinded adjudication, 8 weeks
  Angioedema: 0.2%
[3]; by the week 8 study visit
  Patients in whom the maximum target dose had been achieved: 56%
[3]; excluding discontinuation due to death
  Study drug prematurely discontinued prior to 8 weeks: 19.6%
[3]; initiated after initial stabilization after an ADHF episode
  Tolerability (in words): well tolerated
[4]
  Greater reduction in hsTnT: 16%
Urinary cGMP
  Serial urinary cGMP (in words): increased
[5]
  Relative risk reduction in cardiovascular mortality and hospitalization for worsening HF: 20%
neprilysin
  Share of maximal neprilysin inhibition delivered: approximately 90%
